Measured values as given in patent US8338565B2, “Macrocyclic compounds for inhibition of tumor necrosis factor alpha” (Ensemble Therapeutics Corporation, priority 2008, dated 2012).
Numbered stars: 1 amine (or outer) side, 2 acyl side, 3 side chain; on linkers, the order of the positions; unused ones are H or OH. Bridge positions count the residues as written; N and C are the ends. Square brackets hold non-standard residues; d marks the D form. Peptide text beside a SMILES is read from it. Bip = N[C@@H](Cc1ccc(-c2ccccc2)cc1)C(=O)O; Phe(4-NH2) = Nc1ccc(C[C@H](N)C(=O)O)cc1; d(hPhe) = N[C@H](CCc1ccccc1)C(=O)O; Suc = O=C(CCC(=O)[*:2])[*:1]

How the values were obtained:
rat paw edema model [1] = test: Rat paw edema model (carrageenan), anti-inflammatory activity; assay type: in vivo, Sprague-Dawley (SD) rats
[2] = system: TNF-α (degradation of IkB in HeLa cells or A431 cells); test: Human cell-based assay: inhibition of TNF-α induced degradation of IkB; details: HeLa or A431 cells
rat paw edema model [3] = test: Rat paw edema model (carrageenan), anti-inflammatory activity; assay type: in vivo, Sprague-Dawley (SD) rats; details: Table 10; 3.0 mg/kg PO; 2 h post-carrageenan

With `O=C1CCC(=O)N[C@H](CCc2ccccc2)C(=O)N[C@@H](Cc2ccc(-c3ccccc3)cc2)C(=O)N[C@H](Cc2ccccc2)C(=O)N[C@H](C(=O)N[C@@H](Cc2ccccc2)C(=O)O)Cc2ccc(cc2)N1` [Compound 202] ([d(hPhe)][Bip][dF][Phe(4-NH2)]F-OH; linker N-4 via Suc) the “Change in Paw Volume” value (rat paw edema model [1]; Table 3, 0.3 mg/kg IV, 2 h post-carrageenan) was 0.42 ± 0.20 mL, the “Change in Paw Volume” value (rat paw edema model [1]; Table 3, 0.3 mg/kg IV, 4 h post-carrageenan) was 1.01 ± 0.31 mL and the “Change in Paw Volume” value (rat paw edema model [1]; Table 3, 0.3 mg/kg IV, 6 h post-carrageenan) was 1.16 ± 0.20 mL. For the same compound, the “Change in Paw Volume” value (rat paw edema model [1]; Table 9, 0.05 mg/kg IV, 2 h post-carrageenan) was 1.20 ± 0.09 mL, the “Change in Paw Volume” value (rat paw edema model [1]; Table 9, 0.05 mg/kg IV, 4 h post-carrageenan) was 1.56 ± 0.22 mL and the “Change in Paw Volume” value (rat paw edema model [1]; Table 9, 0.05 mg/kg IV, 6 h post-carrageenan) was 1.67 ± 0.18 mL. The “Change in Paw Volume” value (rat paw edema model [1]; Table 9, 0.1 mg/kg IV, 2 h post-carrageenan) was 0.99 ± 0.15 mL, the “Change in Paw Volume” value (rat paw edema model [1]; Table 9, 0.1 mg/kg IV, 4 h post-carrageenan) was 1.41 ± 0.26 mL and the “Change in Paw Volume” value (rat paw edema model [1]; Table 9, 0.1 mg/kg IV, 6 h post-carrageenan) was 1.62 ± 0.19 mL. The “Change in Paw Volume” value (rat paw edema model [1]; Table 9, 0.3 mg/kg IV, 2 h post-carrageenan) was 0.70 ± 0.13 mL, the “Change in Paw Volume” value (rat paw edema model [1]; Table 9, 0.3 mg/kg IV, 4 h post-carrageenan) was 1.09 ± 0.06 mL and the “Change in Paw Volume” value (rat paw edema model [1]; Table 9, 0.3 mg/kg IV, 6 h post-carrageenan) was 1.15 ± 0.12 mL. For the same compound, the “Change in Paw Volume” value (rat paw edema model [1]; Table 9, 1.0 mg/kg IV, 2 h post-carrageenan) was 0.60 ± 0.04 mL, the “Change in Paw Volume” value (rat paw edema model [1]; Table 9, 1.0 mg/kg IV, 4 h post-carrageenan) was 0.98 ± 0.08 mL and the “Change in Paw Volume” value (rat paw edema model [1]; Table 9, 1.0 mg/kg IV, 6 h post-carrageenan) was 1.14 ± 0.05 mL. The “Change in Paw Volume” value (rat paw edema model [1]; Table 9, 10 mg/kg PO (suspension in Vehicle A), 2 h post-carrageenan) was 1.12 ± 0.15 mL, the “Change in Paw Volume” value (rat paw edema model [1]; Table 9, 10 mg/kg PO (suspension in Vehicle A), 4 h post-carrageenan) was 1.35 ± 0.27 mL and the “Change in Paw Volume” value (rat paw edema model [1]; Table 9, 10 mg/kg PO (suspension in Vehicle A), 6 h post-carrageenan) was 1.42 ± 0.22 mL. The “Change in Paw Volume” value (rat paw edema model [1]; Table 10, 0.3 mg/kg PO, 2 h post-carrageenan) was 1.49 ± 0.14 mL, the “Change in Paw Volume” value (rat paw edema model [1]; Table 10, 0.3 mg/kg PO, 4 h post-carrageenan) was 1.59 ± 0013 mL and the “Change in Paw Volume” value (rat paw edema model [1]; Table 10, 0.3 mg/kg PO, 6 h post-carrageenan) was 1.65 ± 0.10 mL. The “Change in Paw Volume” value (rat paw edema model [1]; Table 10, 1.0 mg/kg PO, 2 h post-carrageenan) was 1.43 ± 0.18 mL, the “Change in Paw Volume” value (rat paw edema model [1]; Table 10, 1.0 mg/kg PO, 4 h post-carrageenan) was 1.45 ± 0.16 mL and the “Change in Paw Volume” value (rat paw edema model [1]; Table 10, 1.0 mg/kg PO, 6 h post-carrageenan) was 1.62 ± 0.14 mL. The “Change in Paw Volume” value (rat paw edema model [1]; Table 10, 3.0 mg/kg PO, 4 h post-carrageenan) was 1.42 ± 0.09 mL, the “Change in Paw Volume” value (rat paw edema model [1]; Table 10, 3.0 mg/kg PO, 6 h post-carrageenan) was 1.50 ± 0.09 mL and the “Change in Paw Volume” value (rat paw edema model [1]; Table 10, 10 mg/kg PO, 2 h post-carrageenan) was 1.17 ± 0.17 mL. The “Change in Paw Volume” value (rat paw edema model [1]; Table 10, 10 mg/kg PO, 4 h post-carrageenan) was 1.29 ± 0.06 mL, the “Change in Paw Volume” value (rat paw edema model [1]; Table 10, 10 mg/kg PO, 6 h post-carrageenan) was 1.51 ± 0.06 mL and the inhibition at 5 µM ([2]; 5 μM compound, read-out: Inhibition at Various Compound Concentrations, 5 μM) was 10 to 50%. The inhibition at 10 µM ([2]; 10 μM compound, read-out: Inhibition at Various Compound Concentrations, 10 μM) was 50 to 80% and the “Change in Paw Volume” value (rat paw edema model [3]) was 1.25 ± 0.08 mL.
